In patent US11453642B2, “Oxygenated amino- or ammonium-containing sulfonic acid, phosphonic acid and carboxylic acid derivatives and their medical use” (GRI BIO, INC., priority 2011, dated 2022):

Legend:
[1] = tested on: collagen type II-induced arthritis (CIA)
RBL-2H3 cells = experiment: Inhibition of mast cell degranulation (β-hexosaminidase release); format: cell-based; conditions: Rattus norvegicus, IgE-sensitized RBL-2H3 cells, 1 h with compound, antigen (DNP-HSA) 15 min
Description: Mast cells are key effector cells involved in allergic and inflammatory diseases, and the Rat Basophilic Leukemia clone 2H3 (RBL-2H3) cell line is a commonly used model of allergen dependent immune modulator release (degranulation) in mast cells. On their surface, they express the high affinity receptor for IgE (FcεRI). Upon binding of antigen-specific IgE to the receptor, cells become sensitized to the IgE specific antigen (allergen). When IgE-sensitized cells then encounter multivalent antigen, the antigen clusters IgE-FcεRI complexes and initiates a signal transduction cascade that leads to degranulation, that is, the release of inflammatory mediators, such as cytokines, eicosanoids, histamine and enzymes. The assay can be used as a screening method to identify immune-modulating compounds, in particular compounds useful in the medical management of allergic and inflammatory diseases and asthma, β-hexosaminidase was previously shown to be released with the same kinetics as histamine (Schwartz et al., J Immunology; 123:1445-1450 (1979)), thus offering a simple means to monitor degranulation. […]
MUG substrate solution, 100 μl, were added to supernatant and lysate samples and plates were incubated 30 min at 37° C. […] Fluorescence was measured at 365 nm excitation and 440 nm emission wavelengths. […]

CCCCCCCCCCCCCCCCN(C)CC(O)CS(=O)(=O)O (centres unmarked) [Compound 1a, 2-hydroxy-3-(N-methylhexadecylammonio)propane-sulfonate]
spleen and thymus weights ([1]; mouse, in vivo): did not reduce
toxic effects ([1]; mouse, in vivo): did not show any toxic effects
cumulative arthritis score and paw thickness ([1]; prophylactic regimen day 0-47, 25 and 100 mg/kg orally twice daily, vs vehicle): reduced
arthritis score and cumulative arthritis score ([1]; therapeutic regimen, 100 mg/kg orally twice daily for 20 days, day 11 to 13 and day 21, vs vehicle): significantly reduced

CCCCCCCCCCCCN(C)CC(O)CS(=O)(=O)O (centres unmarked) [Compound 1c, 2-hydroxy-3-(N-methyldodecylammonio)propanesulfonate]
IC50 (RBL-2H3 cells): 4.1 µM
